According to patent US20230292750A1, “INSECT REPELLENT PATCHES AND TUBULAR ARTICLES” (ACHIEVE EQUINE LLC, priority 2020, published 2023):

What was measured:
[1] = Tack Test (wooden dowel probe on reservoir layer); type: physicochemical; set-up: key: A positive (+) result for tack indicates there was no transfer of the carrier polymer of the reservoir layer to the probe (adhesive failure); settings: repellent 2% in dry carrier, coated on PET tape
Description: Samples of 0.75 inch (19 mm) diameter were coated in circular molds onto the PET tape to a dry thickness of approximately 0.020 inch (0.51 mm). The insect repellent was formulated at 2% within the dry carrier. Subsequent to coating, the samples were first allowed to air dry at room temperature for approximately 1 hour, then placed in a heated air convection oven at approximately […] for several hours. Upon removal, samples sat overnight before evaluation. As a measure of tack, the surface of the coated formulation was probed with the flat end of a wooden dowel The wooden dowel was applied under hand pressure to the surface of the reservoir layer for 1 second long in contact. A positive (+) result for tack indicates there was no transfer of the carrier polymer of the reservoir layer to the probe (adhesive failure).

[2] = Adhesion Test (reservoir layer to support film); type: physicochemical; set-up: key: A positive (+) result for adhesion indicates the carrier cohesively failed with transfer of polymer carrier material of the reservoir layer to the support film; settings: Camie SBR carrier (CAMIE 390B); repellent 2% in dry carrier, coated on PET tape
Description: Samples of 0.75 inch (19 mm) diameter were coated in circular molds onto the PET tape to a dry thickness of approximately 0.020 inch (0.51 mm). The insect repellent was formulated at 2% within the dry carrier. Subsequent to coating, the samples were first allowed to air dry at room temperature for approximately 1 hour, then placed in a heated air convection oven at approximately […] for several hours. Upon removal, samples sat overnight before evaluation. A sharpened to a point like a flat wooden dowel (approximately 3 mm diameter) was used to separate the reservoir layer/support film coating interface. The sharpened end of the wooden dowel was applied under hand pressure at the interface in an attempt to separate the reservoir layer from the support film. A positive (+) result for adhesion indicates the carrier cohesively failed with transfer of polymer carrier material of the reservoir layer to the support film.

[3] = Bostik EVA carrier (comparative)

For `CC(C)=CCC/C(C)=C/CO` [Geraniol], the tack [1, 3] was “+”, the tack ([1]; Camie SBR carrier (CAMIE 390B)) was “+ +” and the adhesion [2] was “+ +”.

With `CCN(CC)C(=O)c1cccc(C)c1` [Deet, N,N-diethyl-meta-toluamide] the tack [1, 3] was “+”, the tack ([1]; Camie SBR carrier (CAMIE 390B)) was “+ +” and the adhesion [2] was “+ +”.
